Measurements from ChEMBL document CHEMBL5154876, “Design, synthesis and promising anti-tumor efficacy of novel imidazo[1,2-a]pyridine derivatives as potent autotaxin allosteric inhibitors” (Eur J Med Chem, 2022).

Legend:
[1] = molecular target: Autotaxin (Homo sapiens, UniProt Q13822); assay: Negative allosteric modulation activity against human ATX using FS-3 as substrate preincubated for 45 mins followed by substrate addition and measured every 30 mins by multi-mode microplate reader
[2] = system: Hep 3B2; assay: Cytotoxicity against human Hep3B cells assessed as inhibition of cell growth incubated for 72 hrs by MTT assay; type: functional, cell-based
[3] = system: MDA-MB-231; assay: Cytotoxicity against human MDA-MB-231 cells assessed as inhibition of cell growth incubated for 72 hrs by MTT assay; type: functional, cell-based; conditions: MDA-MB-231, 72 h
[4] = system: MCF7; assay: Cytotoxicity against human MCF-7 cells assessed as inhibition of cell growth incubated for 72 hrs by MTT assay; type: functional, cell-based; conditions: MCF7, 72 h
[5] = system: A549; assay: Cytotoxicity against human A549 cells assessed as inhibition of cell growth incubated for 72 hrs by MTT assay; type: functional, cell-based; conditions: A549, 72 h
[6] = system: NCI-H2228; assay: Cytotoxicity against human H2228 cells assessed as inhibition of cell growth incubated for 72 hrs by MTT assay; type: functional, cell-based; conditions: NCI-H2228, 72 h
[7] = system: RAW264.7; assay: Cytotoxicity against mouse RAW264.7 cells assessed as inhibition of cell growth incubated for 72 hrs by MTT assay; type: functional, cell-based; conditions: RAW264.7, 72 h
[8] = system: NCI-H1581; assay: Cytotoxicity against human NCI-H1581 cells assessed as inhibition of cell growth incubated for 72 hrs by MTT assay; type: functional, cell-based; conditions: NCI-H1581, 72 h

IC50 [1] [µM]	SMILES	IC50 [2] [µM]	IC50 [3] [µM]	IC50 [4] [µM]	IC50 [5] [µM]	IC50 [6] [µM]	IC50 [7] [µM]	IC50 [8] [µM]
0.164	CCc1nc2c(C)cc(-c3ccc(CN4CCCCC4)cc3)cn2c1NC(=O)OCc1cc(Cl)cc(Cl)c1	–	–	–	–	–	–	–
0.071	CCc1nc2c(C)cc(-c3ccc(CN(CCO)CCO)cc3)cn2c1NC(=O)OCc1cc(Cl)cc(Cl)c1	–	–	–	–	–	–	–
0.129	CCc1nc2c(C)cc(-c3ccc(CN4CCOCC4)cc3)cn2c1NC(=O)OCc1cc(Cl)cc(Cl)c1	–	–	–	–	–	–	–
0.034	CCc1nc2c(C)cc(-c3ccc(CNCCO)cc3)cn2c1NC(=O)OCc1cc(Cl)cc(Cl)c1	> 20	> 20	> 20	> 20	–	–	–
0.017	CCc1nc2c(C)cc(-c3ccc(CN4CCC(O)CC4)cc3)cn2c1NC(=O)OCc1cc(Cl)cc(Cl)c1	–	1.58	5.32	–	7.36	4.58	4.8
0.091	CCc1nc2c(C)cc(-c3ccc(CN4CCSCC4)cc3)cn2c1NC(=O)OCc1cc(Cl)cc(Cl)c1	> 20	–	> 20	> 20	–	–	–
0.154	CCc1nc2c(C)cc(-c3ccc(CN4CCN(C)CC4)cc3)cn2c1NC(=O)OCc1ccc(F)c(F)c1	4.94	6.23	6.44	> 20	–	3.59	–
0.171	CCc1nc2c(C)cc(-c3ccc(CN4CCN(CC)CC4)cc3)cn2c1NC(=O)OCc1ccc(F)c(F)c1	–	–	–	–	–	–	–
0.14	CCc1nc2c(C)cc(-c3ccc(CN4CCCC4)cc3)cn2c1NC(=O)OCc1cc(Cl)cc(Cl)c1	–	–	–	–	–	–	–
0.217	CCc1nc2c(C)cc(-c3ccc(CN4CCN(C)CC4)cc3)cn2c1NC(=O)OCc1cc(Cl)cc(Cl)c1	4.9	–	5.78	4.02	–	1.41	–
0.287	CCc1nc2c(C)cc(-c3ccc(CN4CCSCC4)cc3)cn2c1NC(=O)OCc1ccc(F)c(F)c1	> 20	> 20	–	> 20	–	–	–
0.0335	CCc1nc2c(C)cc(-c3ccc(CN4CCOCC4)cc3)cn2c1NC(=O)OCc1ccc(OC)c(Cl)c1	> 20	> 20	> 20	> 20	> 20	> 20	> 20
0.024	CCc1nc2c(C)cc(-c3ccc(CN4CCC(C)CC4)cc3)cn2c1NC(=O)OCc1cc(Cl)cc(Cl)c1	4.85	5.83	3.98	8.18	5.15	2.13	4.04
0.041	CCc1nc2c(C)cc(-c3ccc(CN4CCC[C@H]4CO)cc3)cn2c1NC(=O)OCc1cc(Cl)cc(Cl)c1	–	–	–	5.78	–	2.51	–

Continued, molecule first:

SMILES	IC50 [1] [µM]	IC50 [2] [µM]	IC50 [3] [µM]	IC50 [4] [µM]	IC50 [5] [µM]	IC50 [6] [µM]	IC50 [7] [µM]	IC50 [8] [µM]
CCc1nc2c(C)cc(-c3ccc(CN4CCN(CC)CC4)cc3)cn2c1NC(=O)OCc1ccc(C(F)(F)F)cc1	0.234	–	–	–	–	–	–	–
CCc1nc2c(C)cc(-c3ccc(CN4CCOCC4)cc3)cn2c1NC(=O)OCc1ccc(F)cc1	0.0513	> 20	> 20	> 20	> 20	> 20	> 20	> 20
CCc1nc2c(C)cc(-c3ccc(CN4CCN(CCO)CC4)cc3)cn2c1NC(=O)OCc1ccc(F)c(F)c1	0.041	10.6	4.83	9.51	5.58	9.65	5	–
CCc1nc2c(C)cc(N3CCN(CC(=O)N4CC(O)C4)CC3)cn2c1N(C)c1nc(-c2ccc(F)cc2)c(C#N)s1 [ZIRITAXESTAT]	–	> 20	> 20	> 20	> 20	> 20	> 20	> 20
CCc1nc2c(C)cc(-c3ccc(CN4CCN(CCO)CC4)cc3)cn2c1NC(=O)OCc1ccc(F)cc1	0.0071	> 20	> 20	> 20	> 20	> 20	> 20	> 20
CCc1nc2c(C)cc(-c3ccc(CN4CCN(CCO)CC4)cc3)cn2c1NC(=O)OCc1ccc(C(F)(F)F)cc1	0.081	6.09	–	7.01	5.06	–	1.98	5.67
O=C(CCN1CCN(C(=O)OCc2cc(Cl)cc(Cl)c2)CC1)c1ccc2[nH]c(=O)oc2c1	–	> 20	> 20	> 20	> 20	> 20	9.58	> 20
CCc1nc2c(C)cc(-c3ccc(CO)cc3)cn2c1NC(=O)OCc1ccc(F)c(F)c1	> 1	–	–	–	–	–	–	–
CCc1nc2c(C)cc(-c3ccc(CN4CCN(C)CC4)cc3)cn2c1NC(=O)OCc1ccc(C(F)(F)F)cc1	0.313	> 20	4.31	> 20	> 20	–	> 20	–
CCc1nc2c(C)cc(-c3ccc(CN4CCC[C@H]4CO)cc3)cn2c1NC(=O)OCc1ccc(F)cc1	0.0264	> 20	> 20	> 20	> 20	> 20	> 20	> 20
